Values quoted from earlier work as cited in patent US20050026902A1, “Methods and compositions for the treatment or prevention of human immunodeficiency virus and related conditions using cyclooxygenase-2 selective inhibitors and antiviral agents” (priority 2003, published 2005).
Read-outs that look alike come from different tables or passages of the source.

How the values were obtained:
[1] = human, in vivo
[2] = human, in vivo, po
[3] = system: RT-SHIV; conditions: in vitro tests
[4] = molecular target: HIV-1 RT from the HxB2 clone (RT-SHIV) (Human immunodeficiency virus type 1 group M subtype B, UniProt P04585); conditions: in vitro tests
[5] = human, in vivo, po; remark: listed apart in the source

Row | SMILES | Food Effect [1] | Food Effect [2] | Food Effect [5] | also measured
1 | O=C1Nc2ccc(Cl)cc2[C@@](C#CC2CC2)(C(F)(F)F)O1 [Efavirenz] | Avoid taking | – | – | –
2 | CC(C)Nc1cccnc1N1CCN(C(=O)c2cc3cc(NS(C)(=O)=O)ccc3[nH]2)CC1 [Delavirdine] | None | – | – | –
3 | Cc1ccnc2c1NC(=O)c1cccnc1N2C1CC1 [Nevirapine, nevirapine] | None | – | – | inhibition of replication of RT-SHIV [3]: could inhibit; inhibition of the RT activity of RT-SHIV [4]: could inhibit
4 | Nc1nc(NC2CC2)c2ncn([C@H]3C=C[C@@H](CO)C3)c2n1 [Abacavir] | – | None | – | –
5 | CC(C)CN(C[C@@H](O)[C@H](Cc1ccccc1)NC(=O)O[C@H]1CCOC1)S(=O)(=O)c1ccc(N)cc1 [Amprenavir] | – | – | Avoid taking | –

Further lines, with some results ahead:

Row | Food Effect [1] | Food Effect [2] | Food Effect [5] | SMILES | also measured
6 | – | None | – | Cc1cn([C@H]2C=C[C@@H](CO)O2)c(=O)[nH]c1=O [Stavudine] | –
7 | – | None | – | Nc1ccn([C@H]2CC[C@@H](CO)O2)c(=O)n1 [Zalcitabine] | –
8 | – | – | Take with food if possible | CC(C)c1nc(CN(C)C(=O)N[C@H](C(=O)N[C@@H](Cc2ccccc2)C[C@H](O)[C@H](Cc2ccccc2)NC(=O)OCc2cncs2)C(C)C)cs1 [Ritonavir, ritonavir] | –
9 | – | – | Take with food if possible | Cc1c(O)cccc1C(=O)N[C@@H](CSc1ccccc1)[C@H](O)CN1C[C@H]2CCCC[C@H]2C[C@H]1C(=O)NC(C)(C)C [Nelfinavir, nelfinavir] | –
10 | – | None | – | Cc1cn([C@H]2C[C@H](N=[N+]=[N-])[C@@H](CO)O2)c(=O)[nH]c1=O [Zidovudine] | –
